These results are taken from patent US12590100B2, “Tetrahydro-spiroindoline-pyrrolopyrrole-triones inhibitors of the NRF2-β-TrCP interaction for use in the treatment of fatty liver disease” (Universidad Autonoma De Madrid, priority 2021, dated 2026).

Molecules are shown by their SMILES.

What all share (assay type): cell-based, mouse
In assay [1] the test system is NRF2. Kind of assay: NRF2 and HO-1 protein levels in MEFs (immunoblot). The method, then:
FIG. 4. […] MEFs in serum-depleted conditions were subjected to (A-C) 1 μM, 3 μM, or 10 μM of PHAR and 10 μM of SFN as a positive control for 16 h; or (D-F) 10 μM of PHAR for the indicated times. In both experiments, 0.1% DMSO was used as a vehicle. A), representative immunoblots of NRF2, HO1, KEAP1, LAMINB, and GAPDH as loading controls. B) and C), densitometric analysis of NRF2 and HO1 protein levels of the representative immunoblots depicted in (A), expressed as a ratio of NRF2/LAMINB or HO1/GAPDH. The data is depicted as means±SEM (n=3). Statistical analysis was performed with one-way ANOVA followed by the Bonferroni test to check inter-group differences. *p<0.05; ***p<0.001 vs. 0. D), representative immunoblots of NRF2, HO1, KEAP1, LAMINB, and GAPDH as loading controls. E) and F), Densitometric analysis of NRF2 and HO1 protein levels of the representative immunoblots of (D), expressed as a ratio of NRF2/LAMINB or HO1/GAPDH. The data is depicted as means±SEM (n=3). Statistical analysis was performed with one-way ANOVA followed by the Bonferroni test to check inter-group differences. *p<0.05; ***p<0.001 vs. 0. G), Reporter MCF-7 c32 ARE-luc cells were subjected to 1 μM, 3 μM, or 9 μM of PHAR and 10 μM of SFN as a positive control. 0.1% DMSO was used as a vehicle. Luciferase activity was measured after 16 h of treatment. The data is depicted as means±SEM (n=3). Statistical analysis was performed with one-way ANOVA followed by the Bonferroni test to check inter-group differences. **p<0.01; ***p<0.001 vs. 0. H), MTT assay to evaluate cell viability/toxicity after treatments. I), Serum-deprived MEFs were subjected to 10 μM of PHAR. The mRNA levels of Hmox1, Nqo1, Aox1, Glc, and Gclm after 8 h of treatment were determined by means of pRT-PCR and normalized by means of average LaminB, Gapdh, and β-actin. The data is depicted as means±SEM (n=3). Statistical analysis was performed with the Student's T test. *p<0.05; **p<0.01 ***p<0.001 vs. 0.
In order to empirically determine if PHAR activates NRF2, mouse embryo fibroblasts (MEFs) were treated with several doses of the compound (1 μM, 3 μM, and […]) for 16 h and with 10 μM of sulforaphane (SFN), one of main electrophilic activators of NRF2, used as a positive control.
Moreover, a time course of NRF2 activation with PHAR (10 μM for 2, 4, and 8 h) or with SFN (10 μM, 8 h) was done as a positive control.
(A western blot detects proteins with antibodies after separation by electrophoresis.)

Assay [2] deals with peritoneal macrophages (Nrf2+/+). Kind of assay: Inflammatory response in LPS-stimulated peritoneal macrophages from Nrf2+/+ mice. The note with it: PHAR 10 μM 8 h, LPS 100 ng/ml 4 h. How it is done:
FIG. 8. PHAR reduces inflammatory response in peritoneal macrophages originating from Nrf2^+/+ mice but not in peritoneal macrophages originating from LPS-stimulated Nrf2-4KI mice. Peritoneal macrophages originating from wild-type (WT) and serum-deprived NRF2 knock-in (Nrf2-4Ki) mice were pretreated with 10 μM of PHAR for 8 h. 0.1% DMSO was used as a vehicle. After that period of time, the cells were treated with 100 ng/ml of LPS for 4 h. A), representative immunoblots originating from both cell types of NRF2, HO1, pre-IL1β, COX2, NOS2, and GAPDH as a loading control. B), densitometric analysis of NRF2 and HO1 protein levels of the representative immunoblots of (A), expressed as a ratio of protein/GAPDH levels. The data is depicted as means±SEM (n=3). Statistical analysis was performed with two-way ANOVA followed by the Bonferroni test to compare inter-group differences. *p<0.05; **p<0.01; ***p<0.001 vs. LPS. C), Densitometric analysis of pre-IL1b, COX2, and NOS2 protein levels of the representative immunoblots of (A), expressed as a ratio of protein/GAPDH levels. The data is depicted as means±SEM (n=3). […] D), the mRNA levels of Hmox1, Il1 β, Cox2, Nos2, Il6, and Tnfα were determined by means of qRT-PCR and normalized by means of average Gapdh, Thp, and β-actin. […]

Assay [3] relates to peritoneal macrophages (Nrf2-4KI). As to the kind of experiment: Inflammatory response in LPS-stimulated peritoneal macrophages from Nrf2-4KI mice. Conditions: Nrf2-4KI peritoneal macrophages, PHAR 10 μM 8 h. How it is done: FIG. 8. PHAR reduces inflammatory response in peritoneal macrophages originating from Nrf2^+/+ mice but not in peritoneal macrophages originating from LPS-stimulated Nrf2-4KI mice. Peritoneal macrophages originating from wild-type (WT) and serum-deprived NRF2 knock-in (Nrf2-4Ki) mice were pretreated with 10 μM of PHAR for 8 h. 0.1% DMSO was used as a vehicle. After that period of time, the cells were treated with 100 ng/ml of LPS for 4 h. A), representative immunoblots originating from both cell types of NRF2, HO1, pre-IL1β, COX2, NOS2, and GAPDH as a loading control. B), densitometric analysis of NRF2 and HO1 protein levels of the representative immunoblots of (A), expressed as a ratio of protein/GAPDH levels. The data is depicted as means±SEM (n=3). Statistical analysis was performed with two-way ANOVA followed by the Bonferroni test to compare inter-group differences. *p<0.05; **p<0.01; ***p<0.001 vs. LPS. C), Densitometric analysis of pre-IL1b, COX2, and NOS2 protein levels of the representative immunoblots of (A), expressed as a ratio of protein/GAPDH levels. The data is depicted as means±SEM (n=3). Statistical analysis was performed with two-way ANOVA followed by the Bonferroni test to compare inter-group differences. *p<0.05; **p<0.01; ***p<0.001 vs. LPS. D), the mRNA levels of Hmox1, Il1 β, Cox2, Nos2, Il6, and Tnfα were determined by means of qRT-PCR and normalized by means of average Gapdh, Thp, and β-actin. The data is depicted as mean±SEM (n=3). Statistical analysis was performed with two-way ANOVA followed by the Bonferroni test to check inter-group differences. *p<0.05; **p<0.01; ***p<0.001 vs. LPS.
As a complementary approach, peritoneal macrophages extracted from Nrf2^+/+ mice and knock-in mice generated in the laboratory having 4 serines substituted with alanines in critical positions for phosphorylation by priming kinase/priming kinases and by GSK-3β (Serines 335, 338, 342, and 347) were used. Both cell types were pretreated with DMSO or PHAR (10 μM, 8 h) and then stimulated with LPS (100 ng/ml, 4 h). […]

Take `O=C1[C@@H]2[C@H](Cc3c[nH]c4ccccc34)N[C@]3(C(=O)Nc4ccc(Cl)cc43)[C@@H]2C(=O)N1c1ccc2c(c1)OCCO2` [PHAR]: in assay [1] (16 h, PHAR 1, 3, 9 μM), the HO-1 levels entry is on record as “increase, mainly with the dose of 9 μM”. For the same compound, the NRF2 accumulation result in assay [1] (16 h, PHAR 1, 3, 9 μM, SFN 10 μM) is “induced NRF2 accumulation, although to a slightly lesser extent than the accumulation induced by SFN”. Besides, the “NRF2 accumulation, time course” value in assay [1] (PHAR 10 μM for 2, 4, 8 h, SFN 10 μM, 8 h) is “induced NRF2 accumulation 2 h after treatment”. For the same compound, the “HO-1 levels, time course” value in assay [1] (PHAR 10 μM, 8 h) is “increase in HO-1 levels after 8 h”. Also, in assay [2], the “NRF2 and HO-1 protein levels” value is “significant increase in NRF2 and HO-1 protein levels”; the “production of inflammatory markers, protein (pre-IL1β, COX2, NOS2) and mRNA (Il1β, Cox2, Nos2, Il6, Tnfα)” value was “significantly lower”. In assay [3], the HO-1 induction entry is on record as “the same HO-1 induction” and the NRF2 induction entry is “considerably lower”. For the same compound, the “protective effect against the inflammatory response” value in assay [3] (LPS 100 ng/ml 4 h) is on record as “lost in almost all the inflammatory markers analyzed”.
